Reference: patent US11807693B2 (priority 2014, dated 2023)
Where two headings read alike, the source gives them in different places. Starred links: 1 amine or outer side, 2 acyl side, 3 side chain; linkers in the order of their positions; H or OH if unused. Non-standard residues stand in square brackets, D forms with d. Residues, ends and D or L forms follow the SMILES beside them. *: point of attachment. dBip = N[C@H](Cc1ccc(-c2ccccc2)cc1)C(=O)O; Oic = O=C(O)[C@@H]1C[C@@H]2CCCC[C@@H]2N1; Phe(4-Cl) = N[C@@H](Cc1ccc(Cl)cc1)C(=O)O; Phe(4-I) = N[C@@H](Cc1ccc(I)cc1)C(=O)O; γGlu = O=C(O)[C@H](CCC(=O)[*:2])N[*:1]; 1Nal = N[C@@H](Cc1cccc2ccccc12)C(=O)O; 2Nal = N[C@@H](Cc1ccc2ccccc2c1)C(=O)O; NMeR = CN[C@@H](CCCNC(=N)N)C(=O)O; Palmitoyl = CCCCCCCCCCCCCCCC(=O)*; Tridecanoyl = CCCCCCCCCCCCC(=O)*; hArg = N=C(N)NCCCC[C@H](N)C(=O)O; dTic = O=C(O)[C@H]1Cc2ccccc2CN1; Cha = N[C@@H](CC1CCCCC1)C(=O)O; NMeL = CN[C@@H](CC(C)C)C(=O)O; Pip = O=C(O)[C@@H]1CCCCN1; Nle = CCCC[C@H](N)C(=O)O; Orn = NCCC[C@H](N)C(=O)O; Deg = CCC(N)(CC)C(=O)O; AEEA = NCCOCCOCC(=O)O

Target: T1, human APJ receptor (Homo sapiens, UniProt P35414)
T1 construct: expressed in transfected cells
T1 sequence (P35414 1-380): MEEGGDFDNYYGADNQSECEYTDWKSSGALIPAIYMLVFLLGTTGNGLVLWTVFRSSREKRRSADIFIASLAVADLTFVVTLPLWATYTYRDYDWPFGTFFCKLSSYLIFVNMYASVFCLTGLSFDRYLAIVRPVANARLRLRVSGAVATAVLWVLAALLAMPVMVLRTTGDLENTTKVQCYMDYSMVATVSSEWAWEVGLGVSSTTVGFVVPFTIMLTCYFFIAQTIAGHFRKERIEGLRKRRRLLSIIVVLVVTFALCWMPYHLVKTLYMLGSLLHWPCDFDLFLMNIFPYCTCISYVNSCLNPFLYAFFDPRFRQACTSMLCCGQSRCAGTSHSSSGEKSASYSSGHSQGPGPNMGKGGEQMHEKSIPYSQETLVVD
Assay: [35S] GTPγS assay, human APJ receptor
Format: biochemical
Method: The membranes were incubated with modified peptides in the assay buffer. […] Bound [^35S] GTPγS was separated from free radiolabel by filtration. The filter bound radioactivity was determined by liquid scintillation counting.

SMILES	EC50 (human APJ receptor) [nM]	EC50 (Table 16) [nM]	EC50 [nM]
CCCCCCCCCCCCC(=O)N[C@@H](CCC(=O)NCCOCCOCC(=O)NCCOCCOCC(=O)N[C@H](CCC(N)=O)C(=O)N[C@@H](CCCCNC(=N)N)C(=O)N1CCC[C@H]1C(=O)N[C@H](CCCNC(=N)N)C(=O)N[C@@H](CC1CCCCC1)C(=O)N[C@@H](CO)C(=O)N[C@@H](Cc1c[nH]cn1)C(=O)N[C@@H](CCCCN)C(=O)NCC(=O)N1[C@H](C(=O)N[C@@H](CCCC)C(=O)N2CCC[C@H]2C(=O)N[C@@H](Cc2cccc3ccccc23)C(=O)O)C[C@@H]2CCCC[C@@H]21)C(=O)O [compound 367] ({Tridecanoyl-γGlu-AEEA-AEEA}-[dQ][hArg]P[dR][Cha]SHKG[Oic][Nle]P[1Nal]-OH)	–	26.4	–
CCCCCCCCCCCCC(=O)N[C@@H](CCC(=O)NCCOCCOCC(=O)NCCOCCOCC(=O)N[C@@H](CCCCNC(=N)N)C(=O)N[C@@H](CCCC)C(=O)N[C@@H](CCC(N)=O)C(=O)N[C@@H](CCCCNC(=N)N)C(=O)N1CCC[C@H]1C(=O)N[C@H](CCCNC(=N)N)C(=O)N(C)[C@@H](CC(C)C)C(=O)N[C@@H](C)C(=O)N[C@@H](Cc1c[nH]cn1)C(=O)N[C@@H](CCCCN)C(=O)NCC(=O)N1[C@H](C(=O)N[C@@H](Cc2ccc(I)cc2)C(=O)N2CCC[C@H]2C(=O)N[C@H](Cc2ccc(-c3ccccc3)cc2)C(=O)O)C[C@@H]2CCCC[C@@H]21)C(=O)O [compound 321] ({Tridecanoyl-γGlu-AEEA-AEEA}-[hArg][Nle]Q[hArg]P[dR][NMeL]AHKG[Oic][Phe(4-I)]P[dBip]-OH)	17.9	–	–
CCCC[C@H](NC(=O)[C@@H]1C[C@@H]2CCCC[C@@H]2N1C(=O)CNC(=O)[C@H](CCCCN)NC(=O)[C@H](Cc1c[nH]cn1)NC(=O)[C@H](CO)NC(=O)[C@H](CC1CCCCC1)NC(=O)[C@H](CCCNC(=N)N)N(C)C(=O)[C@@H]1CCCN1C(=O)[C@H](CCCCNC(=N)N)NC(=O)[C@H](CCC(N)=O)NC(=O)[C@H](CCCCNC(=N)N)NC(=O)[C@H](CCCCNC(=N)N)NC(C)=O)C(=O)N1CCC[C@H]1C(=O)N[C@@H](Cc1ccc(Cl)cc1)C(=O)O [compound 56] (Ac-[hArg][hArg]Q[hArg]P[NMeR][Cha]SHKG[Oic][Nle]P[Phe(4-Cl)]-OH)	–	–	0.176
CCCC[C@H](NC(=O)[C@@H]1CCCN1C(=O)CNC(=O)[C@H](CCCCN)NC(=O)[C@H](Cc1c[nH]cn1)NC(=O)[C@H](CO)NC(=O)[C@H](CC1CCCCC1)NC(=O)[C@H](CCCCNC(=N)N)NC(=O)[C@@H]1CCCN1C(=O)[C@H](CCCNC(=N)N)NC(=O)[C@H](CCC(N)=O)NC(=O)[C@H](CCCCNC(=N)N)NC(=O)[C@H](CCCCNC(=N)N)NC(=O)[C@H](Cc1ccccc1)NC(=O)[C@H](CCCN)NC(C)=O)C(=O)N[C@@H](Cc1ccc2ccccc2c1)C(=O)O [compound 49] (Ac-[Orn]F[hArg][hArg]QRP[hArg][Cha]SHKGP[Nle][2Nal]-OH)	–	–	0.159

Now from value to compound:

EC50 (human APJ receptor) [nM]	EC50 (Table 16) [nM]	EC50 [nM]	SMILES
0.44	–	–	CCCCCCCCCCCCCCCC(=O)N[C@@H](CCC(=O)NCCOCCOCC(=O)NCCOCCOCC(=O)N[C@H](CCC(N)=O)C(=O)N[C@@H](CCCNC(=N)N)C(=O)N1CCC[C@H]1C(=O)N(C)[C@@H](CCCNC(=N)N)C(=O)N[C@@H](CC1CCCCC1)C(=O)N[C@@H](CO)C(=O)N[C@@H](Cc1c[nH]cn1)C(=O)N[C@@H](CCCCN)C(=O)NCC(=O)N1CCCC[C@H]1C(=O)N[C@@H](CCCC)C(=O)N1CCC[C@H]1C(=O)N1Cc2ccccc2C[C@@H]1C(=O)O)C(=O)O [compound 599] ({Palmitoyl-γGlu-AEEA-AEEA}-[dQ]RP[NMeR][Cha]SHKG[Pip][Nle]P[dTic]-OH)
–	1.2	–	CCCCCCCCCCCCC(=O)N[C@@H](CCC(=O)NCCOCCOCC(=O)NCCOCCOCC(=O)N[C@H](CCC(N)=O)C(=O)N[C@@H](CCCNC(=N)N)C(=O)N1CCC[C@H]1C(=O)N(C)[C@@H](CCCNC(=N)N)C(=O)N[C@@H](CC1CCCCC1)C(=O)N[C@@H](CO)C(=O)N[C@@H](Cc1c[nH]cn1)C(=O)N[C@@H](CCCCN)C(=O)NCC(=O)N1[C@H](C(=O)N[C@@H](CCCC)C(=O)NC(CC)(CC)C(=O)N[C@@H](Cc2ccc(Cl)cc2)C(=O)O)C[C@@H]2CCCC[C@@H]21)C(=O)O [compound 549] ({Tridecanoyl-γGlu-AEEA-AEEA}-[dQ]RP[NMeR][Cha]SHKG[Oic][Nle][Deg][Phe(4-Cl)]-OH)
